Reference: patent publication US20230093099A1, “COMPOUNDS AND METHODS OF TREATING CANCERS” (CULLGEN (SHANGHAI), INC., priority 2019, published 2023)
Read-outs that look alike come from different tables or passages of the source.

System: RS4;11 cells
Assay: Cell viability assay (CellTiter-Glo) in RS4;11 cells
Format: cell-based
Conditions: Homo sapiens, 72 h
How it was run: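 RS4;11 cells seeded at 5000 per well, exposed for 3 days to 8- or 12-point 3-fold serial dilutions. Viability read by CellTiter-Glo luminescence; IC50 fitted by nonlinear least-squares regression.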

[1] = RS4;11 cells, cell viability, 3 days, CellTiter-Glo, read-out: IC50
[2] = RS4;11 ALL cells treated for three days, read-out: cell viability inhibition IC50

| Structure (SMILES) | IC50 [1] | IC50 [2] |
| --- | --- | --- |
| O=C(CN1CCC(n2cc(-c3cnc4cccc(-c5cc(F)c(CN6CCOCC6)c(F)c5)c4n3)cn2)CC1)NCCCCCCNc1ccc2c(c1)C(=O)N(C1CCC(=O)NC1=O)C2=O (centres unmarked) [JA-178, 2-(4-(4-(8-(3,5-Difluoro-4-(morpholinomethyl)phenyl)quinoxalin-2-yl)-1H-pyrazol-1-yl)piperidin-1-yl)-N-(6-((2-(2,6-dioxopiperidin-3-yl)-1,3-dioxoisoindolin-5-yl)amino)hexyl)acetamide] | 1900 nM |  |
| O=C(CN1CCC(n2cc(-c3cnc4cccc(-c5cc(F)c(CN6CCOCC6)c(F)c5)c4n3)cn2)CC1)NCCCCCCCNc1ccc2c(c1)C(=O)N(C1CCC(=O)NC1=O)C2=O (centres unmarked) [JA-179, 2-(4-(4-(8-(3,5-difluoro-4-(morpholinomethyl)phenyl)quinoxalin-2-yl)-1H-pyrazol-1-yl)piperidin-1-yl)-N-(7-((2-(2,6-dioxopiperidin-3-yl)-1,3-dioxoisoindolin-5-yl)amino)heptyl)acetamide] | 78.3 nM | < 100 nM |
| O=C(CN1CCC(n2cc(-c3cnc4cccc(-c5cc(F)c(CN6CCOCC6)c(F)c5)c4n3)cn2)CC1)NCCCCCCCCNc1ccc2c(c1)C(=O)N(C1CCC(=O)NC1=O)C2=O (centres unmarked) [JA-180, 2-(4-(4-(8-(3,5-difluoro-4-(morpholinomethyl)phenyl)quinoxalin-2-yl)-1H-pyrazol-1-yl)piperidin-1-yl)-N-(8-((2-(2,6-dioxopiperidin-3-yl)-1,3-dioxoisoindolin-5-yl)amino)octyl)acetamide] | 88.6 nM | < 100 nM |
| O=C1CCC(N2C(=O)c3ccc(NCCOCCC(=O)N4CCC(n5cc(-c6cnc7cccc(-c8cc(F)c(CN9CCOCC9)c(F)c8)c7n6)cn5)CC4)cc3C2=O)C(=O)N1 (centres unmarked) [JA-181, 5-((2-(3-(4-(4-(8-(3,5-Difluoro-4-(morpholinomethyl)phenyl)quinoxalin-2-yl)-1H-pyrazol-1-yl)piperidin-1-yl)-3-oxopropoxy)ethyl)amino)-2-(2,6-dioxopiperidin-3-yl)isoindoline-1,3-dione] | 1690 nM |  |
| O=C1CCC(N2C(=O)c3ccc(NCCCCC(=O)N4CCC(n5cc(-c6cnc7cccc(-c8cc(F)c(CN9CCOCC9)c(F)c8)c7n6)cn5)CC4)cc3C2=O)C(=O)N1 (centres unmarked) [JA-182, 5-((5-(4-(4-(8-(3,5-difluoro-4-(morpholinomethyl)phenyl)quinoxalin-2-yl)-1H-pyrazol-1-yl)piperidin-1-yl)-5-oxopentyl)amino)-2-(2,6-dioxopiperidin-3-yl)isoindoline-1,3-dione] | 13.8 nM | < 100 nM |
| O=C1CCC(N2C(=O)c3ccc(NCCOCCOCCC(=O)N4CCC(n5cc(-c6cnc7cccc(-c8cc(F)c(CN9CCOCC9)c(F)c8)c7n6)cn5)CC4)cc3C2=O)C(=O)N1 (centres unmarked) [JA-183, 5-((2-(2-(3-(4-(4-(8-(3,5-Difluoro-4-(morpholinomethyl)phenyl)quinoxalin-2-yl)-1H-pyrazol-1-yl)piperidin-1-yl)-3-oxopropoxy)ethoxy)ethyl)amino)-2-(2,6-dioxopiperidin-3-yl)isoindoline-1,3-dione] | > 10000 nM |  |
| O=C1CCC(N2C(=O)c3ccc(NCCOCCOCCOCCC(=O)N4CCC(n5cc(-c6cnc7cccc(-c8cc(F)c(CN9CCOCC9)c(F)c8)c7n6)cn5)CC4)cc3C2=O)C(=O)N1 (centres unmarked) [JA-184, 5-((2-(2-(2-(3-(4-(4-(8-(3,5-Difluoro-4-(morpholinomethyl)phenyl)quinoxalin-2-yl)-1H-pyrazol-1-yl)piperidin-1-yl)-3-oxopropoxy)ethoxy)ethoxy)ethyl)amino)-2-(2,6-dioxopiperidin-3-yl)isoindoline-1,3-dione] | 9990 nM |  |

The remaining lines, values ahead:

| IC50 [1] | IC50 [2] | Structure (SMILES) |
| --- | --- | --- |
| > 10000 nM |  | O=C1CCC(N2C(=O)c3ccc(NCCOCCOCCOCCOCCC(=O)N4CCC(n5cc(-c6cnc7cccc(-c8cc(F)c(CN9CCOCC9)c(F)c8)c7n6)cn5)CC4)cc3C2=O)C(=O)N1 (centres unmarked) [JA-185, 5-((15-(4-(4-(8-(3,5-Difluoro-4-(morpholinomethyl)phenyl)quinoxalin-2-yl)-1H-pyrazol-1-yl)piperidin-1-yl)-15-oxo-3,6,9,12-tetraoxapentadecyl)amino)-2-(2,6-dioxopiperidin-3-yl)isoindoline-1,3-dione] |
| > 10000 nM |  | O=C1CCC(N2C(=O)c3ccc(NCCOCCOCCOCCOCCOCCC(=O)N4CCC(n5cc(-c6cnc7cccc(-c8cc(F)c(CN9CCOCC9)c(F)c8)c7n6)cn5)CC4)cc3C2=O)C(=O)N1 (centres unmarked) [JA-186, 5-((18-(4-(4-(8-(3,5-Difluoro-4-(morpholinomethyl)phenyl)quinoxalin-2-yl)-1H-pyrazol-1-yl)piperidin-1-yl)-18-oxo-3,6,9,12,15-pentaoxaoctadecyl)amino)-2-(2,6-dioxopiperidin-3-yl)isoindoline-1,3-dione] |
| 54.4 nM | < 100 nM | O=C1CCC(N2C(=O)c3ccc(NCCCCCCCC(=O)N4CCC(n5cc(-c6cnc7cccc(-c8cc(F)c(CN9CCOCC9)c(F)c8)c7n6)cn5)CC4)cc3C2=O)C(=O)N1 (centres unmarked) [JA-187, 5-((8-(4-(4-(8-(3,5-difluoro-4-(morpholinomethyl)phenyl)quinoxalin-2-yl)-1H-pyrazol-1-yl)piperidin-1-yl)-8-oxooctyl)amino)-2-(2,6-dioxopiperidin-3-yl)isoindoline-1,3-dione] |
| 69.7 nM | < 100 nM | O=C1CCC(N2C(=O)c3ccc(NCCCCCCC(=O)N4CCC(n5cc(-c6cnc7cccc(-c8cc(F)c(CN9CCOCC9)c(F)c8)c7n6)cn5)CC4)cc3C2=O)C(=O)N1 (centres unmarked) [JA-188, 5-((7-(4-(4-(8-(3,5-difluoro-4-(morpholinomethyl)phenyl)quinoxalin-2-yl)-1H-pyrazol-1-yl)piperidin-1-yl)-7-oxoheptyl)amino)-2-(2,6-dioxopiperidin-3-yl)isoindoline-1,3-dione] |
| 5160 nM |  | O=C1CCC(N2C(=O)c3ccc(NCCC(=O)N4CCC(n5cc(-c6cnc7cccc(-c8cc(F)c(CN9CCOCC9)c(F)c8)c7n6)cn5)CC4)cc3C2=O)C(=O)N1 (centres unmarked) [JA-190, 5-((3-(4-(4-(8-(3,5-Difluoro-4-(morpholinomethyl)phenyl)quinoxalin-2-yl)-1H-pyrazol-1-yl)piperidin-1-yl)-3-oxopropyl)amino)-2-(2,6-dioxopiperidin-3-yl)isoindoline-1,3-dione] |
| 9500 nM |  | O=C1CCC(N2C(=O)c3ccc(NCC(=O)N4CCC(n5cc(-c6cnc7cccc(-c8cc(F)c(CN9CCOCC9)c(F)c8)c7n6)cn5)CC4)cc3C2=O)C(=O)N1 (centres unmarked) [JA-191] |
| > 10000 nM |  | O=C1CCC(N2C(=O)c3ccc(NCCCC(=O)N4CCC(n5cc(-c6cnc7cccc(-c8cc(F)c(CN9CCOCC9)c(F)c8)c7n6)cn5)CC4)cc3C2=O)C(=O)N1 (centres unmarked) [JA-192, 5-((4-(4-(4-(8-(3,5-Difluoro-4-(morpholinomethyl)phenyl)quinoxalin-2-yl)-1H-pyrazol-1-yl)piperidin-1-yl)-4-oxobutyl)amino)-2-(2,6-dioxopiperidin-3-yl)isoindoline-1,3-dione] |
| > 10000 nM |  | CS(=O)(=O)c1ccc(-c2cccc3nc(Nc4ccc(N5CCN(C(=O)CCOCCOCCOCCOCCOCCNc6ccc7c(c6)C(=O)N(C6CCC(=O)NC6=O)C7=O)CC5)cc4)nn23)cc1 (centres unmarked) [JA-193, 2-(2,6-Dioxopiperidin-3-yl)-5-((18-(4-(4-((5-(4-(methylsulfonyl)phenyl)-[1,2,4]triazolo[1,5-a]pyridin-2-yl)amino)phenyl)piperazin-1-yl)-18-oxo-3,6,9,12,15-pentaoxaoctadecyl)amino)isoindoline-1,3-dione] |
